Assay results from patent EP0252482A2, “7-Acyloxy-6-aminoacyloxypolyoxylabdanes, process for their preparation and their use as medicine” (HOECHST AKTIENGESELLSCHAFT, priority 1986, dated 1988).
Counter-ions that a name gives are not always drawn.

How the values were obtained:
[1] = system: Katzen; experiment: Blood pressure in the anaesthetised cat (femoral artery), i.v. administration; format: in vivo; conditions: Katze, Dosis 3 mg/kg
Protocol: 1. Blutdruck an der Katze: Katzen beiderlei Geschlechts von 3 bis 4 kg Gewicht wurden mit Äther narkotisiert und unter Chloralose-Narkose (70 mg/kg, i.v.) gehalten. Sowohl die Oberschenkelarterie als auch -vene wurden zur Aufzeichnung des Blutdrucks und zur Verabreichung von Medikamenten kanüliert. Der Blutdruck in der Oberschenkelarterie wurde über einen Messwandler Statham 23 Db auf einem physiologischen Nihon-Kohden-Registriergerät aufgezeichnet. Die zu prüfende Verbindung wurde in destilliertem Wasser gelöst und intravenös verabreicht, und der Blutdruckabfall und die Dauer der blutdrucksenkenden Wirkung wurden notiert.
Die mit diesem Modell für typische erfindungsgemäße Verbindungen erhaltenen Resultate sind in der nachfolgenden Tabelle angegeben: […]

[2] = system: Beagle-Hunde; experiment: Blood pressure, heart rate and left ventricular dp/dt in the anaesthetised beagle dog, i.v. administration; format: in vivo; conditions: Hund; for Blutdruckabfall: Natriumpentobarbital; for % Zunahme in dp/dt max: left ventricle
Protocol: 2. Blutdruck am Hund: Methode: Beagle-Hunde beiderlei Geschlechts (Gewicht im Bereich 10 bis 15 kg) wurden mit Natriumpentobarbital narkotisiert (35 mg/kg, i.v.). Nach Einführung eines Endotrachealrohrs wurden sowohl die Oberschenkelarterie als auch die -vene zur Aufnahme des Blutdrucks und zur Verabreichung der Verbindung kanüliert. Der Druck im linken Ventrikel wurde mit einem Katheterspitzen-Messwandler (Millar-Kathether) gemessen und über einen Hugo Sachs-Differentiator differenziert. Sämtliche Methoden wurden auf einem Hellige-Schreibgerät mit sechs Kanälen aufgezeichnet. Die Elektrokardiogrammsignale wurden auf einem Becton-Dickinson-Gerät verfolgt.
Eine einprozentige Lösung der erfindungsgemäßen Verbindung in destilliertem Wasser wurde hergestellt und in verschiedenen Dosierungen intravenös verabreicht.

Question: Which results are given for `C=CC1(C)CC(=O)C2(O)C(C)(O1)C(OC(=O)CC)C(OC(=O)CN1CCCCC1)C1C(C)(C)CCC(O)C12C` (stereo not drawn) [C2H5, 1α,9α-Dihydroxy-8,13-epoxy-6ß-piperidino acetoxy-7ß-propionyloxy-labd-14-en-11-on hydrochlorid]?
Answer: Blutdruckabfall ([1]; Chloralose-Narkose): 30 mm Hg; Dauer ([1]; duration of hypotensive effect): > 120 min; Dauer ([2]; Dosis 0.3 mg/kg): 10 min; Dauer ([2]; Dosis 1.0 mg/kg): 60 min; Pulszunahme ([2]; Dosis 1.0 mg/kg): +19 Pulsschläge pro Min.; Blutdruckabfall ([2]; Dosis 0.3 mg/kg): 10 mm Hg; Blutdruckabfall ([2]; Dosis 1.0 mg/kg): 46 mm Hg; % Zunahme in dp/dt max ([2]; Dosis 0.3 mg/kg): +38%; % Zunahme in dp/dt max ([2]; Dosis 1.0 mg/kg): +65%
